Here are results for three compounds from patent US8404680B2, “N-[3-(5-amino-3,3a,7,7a-tetrahydro-1H-2,4-dioxa-6-aza-inden-7-yl)-phenyl]-amides as BACE1 and/or BACE2 inhibitors” (Hoffmann-La Roche Inc., priority 2011, dated 2013).

In general, IC50 refers to the concentration needed to halve the response being measured. The low end stands for greater potency in that assay, the high end for weaker potency in that assay.

Assay [1] addresses T1, BACE1 (Homo sapiens, UniProt P56817).
T1 construct: Human HEK293 cells which are stably transfected with a vector expressing a cDNA of the human APP wt gene (APP695); endogenous in cells; host or cells: HEK293 (human), stably transfected with human APP695 wt
The assay is described as follows: Cellular Aβ-lowering assay. The class given is cell-based. The following applies: human HEK293 cells stably expressing human APP wt (APP695); Aβ40 in supernatant by ELISA after 18-20 hrs. The method, then:
Cellular Aβ-Lowering Assay:
Human HEK293 cells which are stably transfected with a vector expressing a cDNA of the human APP wt gene (APP695) were used to assess the potency of the compounds in a cellular assay. The cells were seeded in 96-well microtiter plates in cell culture medium (Iscove, plus 10% (v/v) fetal bovine serum, glutamine, penicillin/streptomycin) to about 80% confluence and the compounds were added at a 10× concentration in 1/10 volume of medium without FCS containing 8% DMSO (final concentration of DMSO was kept at 0.8% v/v). After 18-20 hrs incubation at 37° C. and 5% CO2 in a humidified incubator the culture supernatant was harvested for the determination of Aβ40 concentrations. 96well ELISA plates (e.g., Nunc MaxiSorb) were coated with monoclonal antibody which specifically recognize the C-terminal end of Aβ40 (Brockhaus et al., NeuroReport 9, 1481-1486; 1998). After blocking of non-specific binding sites with e.g. 1% BSA and washing, the culture supernatants were added in suitable dilutions together with a horseradish peroxidase-coupled Aβ detection antibody (e.g., antibody 4G8, Senetek, Md. Heights, Mo.) and incubated for 5 to 7 hrs. Subsequently the wells of the microtiter plate were washed extensively with Tris-buffered saline containing 0.05% Tween 20 and the assay was developed with tetramethylbenzidine/H2O2 in citric acid buffer. After stopping the reaction with one volume 1 NH2SO4 the reaction was measured in an ELISA reader at 450 nm wavelength. The concentrations of Aβ in the culture supernatants were calculated from a standard curve obtained with known amounts of pure Aβ peptide.
On the technique in general: In an ELISA, binding on a coated surface is turned into a signal by an enzyme label.

In assay [2] the target is T2, BACE2 (Rattus norvegicus, UniProt Q6IE75).
T2 construct: endogenous cellular BACE2 in the Ins1e rat cell line; endogenous in cells; host or cells: INS-TMEM27 (INS1e-derived rat cell line, TetOn-inducible full-length hTMEM27)
T2 sequence (Q6IE75 63-514): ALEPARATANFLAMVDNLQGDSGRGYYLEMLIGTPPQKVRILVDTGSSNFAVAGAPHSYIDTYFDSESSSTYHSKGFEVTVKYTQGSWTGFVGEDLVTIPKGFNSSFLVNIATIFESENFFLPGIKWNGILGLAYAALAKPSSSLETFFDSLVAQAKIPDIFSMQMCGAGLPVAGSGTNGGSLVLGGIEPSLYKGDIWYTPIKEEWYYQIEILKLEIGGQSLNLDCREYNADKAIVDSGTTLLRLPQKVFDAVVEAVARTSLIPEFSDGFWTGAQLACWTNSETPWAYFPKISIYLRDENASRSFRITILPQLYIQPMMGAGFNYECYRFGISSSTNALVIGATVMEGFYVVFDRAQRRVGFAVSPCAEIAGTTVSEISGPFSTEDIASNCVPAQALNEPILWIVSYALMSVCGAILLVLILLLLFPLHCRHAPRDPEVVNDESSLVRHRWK
The assay is described as follows: Assay for BACE inhibition by measuring cellular TMEM27 cleavage. It counts as cell-based. The conditions noted are these: INS-TMEM27 (INS1e-derived rat cell line, inducible hTMEM27); shed TMEM27 in medium by ELISA. From the text: Assay for BACE Inhibition by Measuring Cellular TMEM27 Cleavage:
The assay uses the principle of inhibition of human TMEM27 cleavage by endogenous cellular BACE2 in the Ins1e rat cell line and shedding from the cell surface into the culture medium, followed by detection in an ELISA assay Inhibition of BACE2 prevents the cleavage and shedding in a dose-dependent manner.
The stable cell line “INS-TMEM27” represents an INS1e-derived cell line with inducible expression (using the TetOn system) of full-length hTMEM27 in a doxycycline-dependent manner. The cells are cultured throughout the experiment in RPMI1640+ Glutamax (Invitrogen) Penicillin/Streptomycin, 10% Fetal bovine serum, […], […], 100 micrograms/ml G418 and 100 microgram/ml hygromycin and are grown inadherent culture at 37° C. in a standard CO2 cell culture incubator.
INS-TMEM27 cells are seeded in 96-well plates. After 2 days in culture, BACE2 inhibitor is added in a range of concentrations as required by the assay and after a further two hours, doxycycline is added to a final concentration of 500 ng/ml. The cells are incubated for a further 46 hours and the supernatant harvested for detection of shed TMEM27.
An ELISA assay (using a pair of mouse anti-human-TMEM27 antibodies, raised against the extracellular domain of TMEM27) is used for detection of TMEM27 in the culture medium. An EC50 for BACE2 inhibition is calculated using the ELISA readout for each inhibitor concentration with standard curve-fitting software such as XLFit for the Excel spreadsheet program.

T1 sequence (P56817 46-501): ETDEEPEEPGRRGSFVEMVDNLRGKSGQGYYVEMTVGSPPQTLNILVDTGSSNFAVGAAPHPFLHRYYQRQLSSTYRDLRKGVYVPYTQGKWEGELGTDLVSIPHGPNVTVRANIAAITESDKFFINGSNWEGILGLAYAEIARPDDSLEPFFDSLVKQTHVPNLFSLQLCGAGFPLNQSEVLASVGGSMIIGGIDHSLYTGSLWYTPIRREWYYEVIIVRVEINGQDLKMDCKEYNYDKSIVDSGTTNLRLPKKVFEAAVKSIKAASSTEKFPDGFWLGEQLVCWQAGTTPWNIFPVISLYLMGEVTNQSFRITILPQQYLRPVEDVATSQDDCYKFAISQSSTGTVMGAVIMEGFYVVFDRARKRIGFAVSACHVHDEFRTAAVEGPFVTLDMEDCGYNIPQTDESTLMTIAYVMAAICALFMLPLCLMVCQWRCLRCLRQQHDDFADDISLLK

As for `C[C@]1(c2cc(NC(=O)c3ccccn3)ccc2F)N=C(N)O[C@@H]2COC[C@@H]21` [Example 5, Pyridine-2-carboxylic acid [3-((3aS,7S,7aS)-5-amino-7-methyl-3,3a,7,7a-tetrahydro-4H-2,4-dioxa-6-aza-inden-7-yl)-4-fluoro-phenyl]-amide], the IC50 was 8 nM in assay [1] and 37 nM in assay [2].

Take `C[C@]1(c2cc(NC(=O)c3ccc(OCC(F)(F)F)cn3)ccc2F)N=C(N)O[C@@H]2COC[C@@H]21` [Example 6, 5-(2,2,2-Trifluoro-ethoxy)-pyridine-2-carboxylic acid [3-((3aS,7S,7aS)-5-amino-7-methyl-3,3a,7,7a-tetrahydro-4H-2,4-dioxa-6-aza-inden-7-yl)-4-fluoro-phenyl]-amide]: the IC50 is 6 nM in assay [1] and 556 nM in assay [2].

`C[C@]1(c2cc(NC(=O)c3cnc(OCC(F)(F)F)cn3)ccc2F)N=C(N)O[C@@H]2COC[C@@H]21` [Example 8, 5-(2,2,2-Trifluoro-ethoxy)-pyrazine-2-carboxylic acid [3-((3aS,7S,7aS)-5-amino-7-methyl-3,3a,7,7a-tetrahydro-1H-2,4-dioxa-6-aza-inden-7-yl)-4-fluoro-phenyl]-amide]: the results for the IC50 in assay [1] and in assay [2] were 1.8 nM and 209 nM, respectively.
